Experimental data: patent publication US7718715B2, “pH-modified latex comprising a synergistic combination of biocides” (S.C. Johnson & Son, Inc., priority 2004, dated 2010)

How the values were obtained:
[1] = test system: Escherichia coli #11229, Pseudomonas aeruginosa #15442; test: Challenge Test (Antimicrobial Effectiveness Test), bacterial inoculum (1:1 mixture); format: cell-based, E. coli & P. aeruginosa; settings: stabilized acrylic latex A, DN 22%
Method: The following cultures were obtained from American Type Culture Collection (ATCC) at 10801 University Boulevard, Manassas, Va. 20110-2209: Escherichia coli #11229, Pseudomonas aeruginosa #15442, Candida albicans #10231, Aspergillus niger #6275. The bacterial inoculum was 0.10 ml of a 1:1 mixture of the 24-hr±4 hr culture of E. coli and P. aeruginosa in 25 grams of sample to give approximately 4×10^6 CFU/g. Both E. coli culture and the P. aeruginosa culture were grown in Nutrient Broth (Difco Laboratories, Detroit, Mich.) at 35° C. Each of the 25-g samples were inoculated or challenged with 0.10 ml of the bacterial inoculum, the yeast inoculum, and the mold inoculum respectively on day-0 and day-14. All samples were stored at ambient temperature. Each sample (10 microliter) was streaked on appropriate agar plates (bacteria on Tryptic Soy Agar (Difco Laboratories, Detroit, Mich.) plates with neutralizer and yeast/mold on Potato Dextrose Agar (Difco Laboratories, Detroit, Mich.) plates with neutralizer) on day-1, day-2, day-3, day-7, day-14, day-15, day-16, day-17, day-21, and day-28 to test for survivors. Streaked plates were incubated at appropriate temperature and time (48-hr at 35±2° C. for bacteria and 72-hr at 28±2° C. for yeast/mold). On day-14, each sample was re-inoculated with appropriate inoculum after streaking on agar plates. Plates were read after incubation time. Recovery of surviving organisms at 14 days was a failing result for the challenge test. Biocides were always added after the reaction has been completed and after the batch has been cooled to <50° C. The desired temperature was dependent on the specific biocide. Many biocides become deactivated if exposed to high temperatures for an extended time. Each biocide was diluted with about 5× its weight with DI water and slowly added to the batch with good agitation. The dilution is to prevent the biocide from shocking the latex. The batch was mixed for a minimum of 20 minutes after the biocide was added to ensure good incorporation. If any temporary destabilization to the latex had occurred, it had time to recover prior to filtration. The Challenge Test is a qualitative laboratory procedure used to differentiate poorly and marginally preserved products from well-preserved products. Products are intentionally inoculated with test organisms and then evaluated by use of streak plating technique to determine if microbial reduction has been attained.

Candida albicans #10231 = test: Challenge Test (Antimicrobial Effectiveness Test), yeast inoculum; format: cell-based; design: key to Challenge Test result: Yeast C. albicans: Fail: Recovery of surviving organisms at 14 days was a failing result for the challenge test; settings: for Challenge Test result: Yeast C. albicans: stabilized acrylic latex A, DN 22%
Method: The following cultures were obtained from American Type Culture Collection (ATCC) at 10801 University Boulevard, Manassas, Va. 20110-2209: Escherichia coli #11229, Pseudomonas aeruginosa #15442, Candida albicans #10231, Aspergillus niger #6275.
The yeast inoculum was 0.10 ml of a 72-hr±4 hr culture of C. albicans in 25 grams of sample to give approximately 2×10^5 CFU/g. The C. albicans culture was grown in Potato Dextrose Broth (Difco Laboratories, Detroit, Mich.) at 28° C.
(§1) Each of the 25-g samples were inoculated or challenged with 0.10 ml of the bacterial inoculum, the yeast inoculum, and the mold inoculum respectively on day-0 and day-14. All samples were stored at ambient temperature. Each sample (10 microliter) was streaked on appropriate agar plates (bacteria on Tryptic Soy Agar (Difco Laboratories, Detroit, Mich.) plates with neutralizer and yeast/mold on Potato Dextrose Agar (Difco Laboratories, Detroit, Mich.) plates with neutralizer) on day-1, day-2, day-3, day-7, day-14, day-15, day-16, day-17, day-21, and day-28 to test for survivors. Streaked plates were incubated at appropriate temperature and time (48-hr at 35±2° C. for bacteria and 72-hr at 28±2° C. for yeast/mold). On day-14, each sample was re-inoculated with appropriate inoculum after streaking on agar plates. Plates were read after incubation time. Recovery of surviving organisms at 14 days was a failing result for the challenge test.
Biocides were always added after the reaction has been completed and after the batch has been cooled to <50° C. The desired temperature was dependent on the specific biocide. Many biocides become deactivated if exposed to high temperatures for an extended time. Each biocide was diluted with about 5× its weight with DI water and slowly added to the batch with good agitation. The dilution is to prevent the biocide from shocking the latex. The batch was mixed for a minimum of 20 minutes after the biocide was added to ensure good incorporation. If any temporary destabilization to the latex had occurred, it had time to recover prior to filtration.
The Challenge Test is a qualitative laboratory procedure used to differentiate poorly and marginally preserved products from well-preserved products. Products are intentionally inoculated with test organisms and then evaluated by use of streak plating technique to determine if microbial reduction has been attained.

C. albicans & A. niger = test: Challenge Test end point on yeast and mold and Synergy Index (Kull); format: cell-based; settings: Bioban CS-1135 acting alone (QA); test stabilized acrylic latex A
Method: as §1, with “On day-14, each sample was re-inoculated with appropriate inoculum after streaking on agar plates.” left out, “Recovery of surviving organisms at 14 days was a failing result for the challenge test.” left out
Synergism was determined by the method described by F. C. […] Eisman, H. D. Sylwestrowicz, and R. L. Mayer in Applied Microbiology, Volume 9, pages 538-541, 1961 using the ratio determined by • Synergy Index (SI)=Qa/QA+Qb/QB=1 is additivity, <1 is synergism, and >1 is antagonism • where, • Qa=concentration of compound A, in the mixture, producing an end point • QA=concentration of compound A, acting alone, producing an end point • Qb=concentration of compound B, in the mixture, producing an end point • QB=concentration of compound B, acting alone, producing an end point

[2] = 0.10% Bronopol (30% active), 0.00% Bioban CS-1135, pH 6.64, Table 1
[3] = 0.10% Bronopol (30% active), 0.00% Dowicil 75, pH 6.64, Table 3
[4] = 0.20% Bronopol (30% active), 0.00% Bioban CS-1135, pH 6.65, Table 1
[5] = 0.20% Bronopol (30% active), 0.00% Dowicil 75, pH 6.65, Table 3
[6] = 0.50% Bronopol (30% active), 0.00% Bioban CS-1135, pH 6.58, Table 1
[7] = 0.50% Bronopol (30% active), 0.00% Dowicil 75, pH 6.58, Table 3
[8] = 0.80% Bronopol (30% active), 0.00% Bioban CS-1135, pH 6.57, Table 1
[9] = 0.80% Bronopol (30% active), 0.00% Dowicil 75, pH 6.57, Table 3
[10] = 1.20% Bronopol (30% active), 0.00% Bioban CS-1135, pH 6.57, Table 1
[11] = 1.20% Bronopol (30% active), 0.00% Dowicil 75, pH 6.57, Table 3
[12] = 0.10% Bioban CS-1135, 0.00% Bronopol, pH 6.68
[13] = 0.20% Bioban CS-1135, 0.00% Bronopol, pH 6.69
[14] = 0.80% Bioban CS-1135, 0.00% Bronopol, pH 6.62
[15] = 1.20% Bioban CS-1135, 0.00% Bronopol, pH 6.64
[16] = 2.00% Bioban CS-1135, 0.00% Bronopol, pH 6.82

O=[N+]([O-])C(Br)(CO)CO [Bronopol, 2-bromo-2-nitro-1,3-propanediol]
Pass: Challenge Test result: Bacteria E. coli & P. aeruginosa [1, 2] | Challenge Test result: Bacteria E. coli & P. aeruginosa [1, 3] | Challenge Test result: Bacteria E. coli & P. aeruginosa [1, 4] | Challenge Test result: Bacteria E. coli & P. aeruginosa [1, 5] | Challenge Test result: Bacteria E. coli & P. aeruginosa [1, 6] | Challenge Test result: Bacteria E. coli & P. aeruginosa [1, 7] | Challenge Test result: Bacteria E. coli & P. aeruginosa [1, 8] | Challenge Test result: Bacteria E. coli & P. aeruginosa [1, 9] | Challenge Test result: Bacteria E. coli & P. aeruginosa [1, 10] | Challenge Test result: Bacteria E. coli & P. aeruginosa [1, 11] | Challenge Test result: Yeast C. albicans (Candida albicans #10231; [3]) | Challenge Test result: Yeast C. albicans (Candida albicans #10231; [5]) | Challenge Test result: Yeast C. albicans (Candida albicans #10231; [6]) | Challenge Test result: Yeast C. albicans (Candida albicans #10231; [7]) | Challenge Test result: Yeast C. albicans (Candida albicans #10231; [8]) | Challenge Test result: Yeast C. albicans (Candida albicans #10231; [9]) | Challenge Test result: Yeast C. albicans (Candida albicans #10231; [10]) | Challenge Test result: Yeast C. albicans (Candida albicans #10231; [11])
Fail: Challenge Test result: Yeast C. albicans (Candida albicans #10231; [2]) | Challenge Test result: Yeast C. albicans (Candida albicans #10231; [4])

CC1(C)COCN1 [Bioban CS-1135, 4,4-dimethyl-oxazolidine]
failed to kill: killing of yeast (C. albicans) (Candida albicans #10231; BIOBAN CS-1135 at 1.2%, acrylic latex A)
failed to control: control of Candida albicans (Candida albicans #10231; maximum allowable level, test stabilized acrylic latex)
2%: Compound A end-point in % (C. albicans & A. niger)
Fail: Challenge Test result: Yeast C. albicans (Candida albicans #10231; [12]) | Challenge Test result: Yeast C. albicans (Candida albicans #10231; [13]) | Challenge Test result: Yeast C. albicans (Candida albicans #10231; [14]) | Challenge Test result: Yeast C. albicans (Candida albicans #10231; [15])
Pass: Challenge Test result: Bacteria E. coli & P. aeruginosa [1, 12] | Challenge Test result: Bacteria E. coli & P. aeruginosa [1, 13] | Challenge Test result: Bacteria E. coli & P. aeruginosa [1, 14] | Challenge Test result: Bacteria E. coli & P. aeruginosa [1, 15] | Challenge Test result: Bacteria E. coli & P. aeruginosa [1, 16] | Challenge Test result: Yeast C. albicans (Candida albicans #10231; [16])
